Experimental data: patent EP0357495A2, “3'Azido-3'-deoxythymidine (AZT) derivatives active against the AIDS virus” (IRE-CELLTARG S.A., priority 1988, dated 1990)

Experiments:
[1] = system: virus MSV Moloney sarcoma virus; assay: in vivo activity in MSV-infected NMRI mice (survival, tumour appearance); parameters: species or system souris NMRI
Procedure: L'AZT et ses dérivés selon l'invention ont été testés in vivo chez la souris NMRI (souriceaux de 2 jours) infectée par le virus MSV Moloney sarcoma virus). La drogue est adminitrée i.p. pendant 5 jours dans un volume de 25 µl/g de poids corporel. Le virus est inoculé dans la cuisse gauche de l'animal deux heures après la première administration de drogue. Les animaux sont contrôlés tous les jours selon trois critères : survie, apparition de la tumeur et poids (toxicité) pendant 50 jours. Les résultats sont repris au tableau 7 et dans les figures 8 à 11. [formula]
On entend par temps médian de survie le temps où la moitié des souris sont encore vivantes. [formula] Tableau 7

[2] = system: virus HIV-1 (souche HTLV-IIIB); assay: anti-HIV activity in HIV-infected MT4 cells (MTT method); format: cell-based
Procedure: Les produits (AZT, AZT-5′ hémisuccinyl et AZT 5′-leucyl) à différentes concentrations ont été mis en présence de cellules MT4 (4 X 10⁴ cellules par puits de microtray) infectées ou non avec 100 CCID₅₀ de virus HIV-1 (souche HTLV-IIIB). La CCID₅₀ représente la quantité de virus à rajouter pour obtenir une infection de 50 % des cellules (dose infectieuse de cellules en culture 50).
Après cinq jours d'incubation à 37°C, le nombre de cellules vivantes a été déterminé par la méthode au MTT, basée sur la réduction par les cellules vivantes du 3′-(4, 5-diméthylthiazol-2-yl)-2,5-diphényltétrazoliumbromide, jaune, en formazan, bleu. L'activité antivirale et la cytotoxicité sont exprimées sous forme de ED₅₀ et de CD₅₀. La CD₅₀ représente la dose qui tue 50 % des cellules non infectées et la ED₅₀ représente la dose qui protège 50 % des cellules de l'infection virale.
La même expérience que celle décrite ci-avant (exemple 9.1)) a été réalisée, mais en présence de thymidine 250 µM et de 2′déoxycytidine 500 µM. En effet l'AZT entre en compétition avec la thymidine au niveau des enzymes de phosphorylation qui vont le transformer en AZT triphosphate (AZT TP) qui est la forme active du produit. Un excès de thymidine réduit donc très fortement l'activité de l'AZT, ce qui se traduit par une ED₅₀ plus élevée. Par conséquent, si le dérivé de l'AZT doit son activité à la libération d'AZT qui à son tour est phosphorylé en AZT TP, un excès de thymidine aura également pour effet d'élever la ED₅₀ du dérivé. La thymidine étant cytotoxique à la concentration utilisée, il est nécessaire de rajouter de la 2′déoxycytidine pour empêcher cette toxicité.
Les protocoles expérimentaux sont ceux décrits à l'exemple 9 3.1) et 9 3).

[3] = system: cellules de la moëlle osseuse; assay: toxicity on bone marrow cells (colony count, day 7); format: cell-based; settings: bone marrow cells of a healthy donor, semi-solid medium with GMCSF, colonies at day 7
From the text: Des cellules ont été isolées à partir d'un prélèvement de moëlle osseuse chez un donneur sain. Elles ont été mises en culture en milieu semi-solide (agar) additionné de Granulocyte-Macrophage-Colony Stimulating Factor (GMCSF) en présence d'AZT et d'AZT 5′hémisuccinyl à différentes concentrations. Le nombre de cellules ayant donné naissance à une colonie a été déterminé par comptage de colonies au jour 7.
La toxicité du dérivé est de l'ordre de 10 fois plus faible que celle de l'AZT.

[4] = system: virus HIV-1 (souche HTLV-IIIB); assay: viral antigen assay in HIV-infected human peripheral blood lymphocytes; format: cell-based; settings: day 14 of culture
From the text: Les lymphocytes ont été extraits d'un concentré plaquettaire par séparation sur gradient de Ficoll et élimination des adhérentes. Après 3 jours de stimulation par la phytohémaglutinine, ils ont été transférés dans un milieu additionné d'interleukine-2 (IL-2) est infectés par le virus HIV-1 (souche HTLV-IIIB). L'AZT et son dérivé 5′ hémisuccinate à différentes concentrations ont été rajoutés aux cellules au moment de l'infection.
Trois jours après l'infection, le milieu a été remplacé par du milieu frais additionné d'IL-2, contenant les produits aux concentrations désirées pour la moitié des cellules, et ne contenant plus de produit pour l'autre moitié. Ensuite, le milieu des cellules a été remplacé à moitié par du milieu frais additionné d'IL-2, contenant ou non les produits aux concentrations désirées, tous les 3 à 4 jours.
La multiplication du virus a été suivie par dosage des antigènes viraux dans les surnageants de culture (Innotest HIV-Organon Teknika).

[5] = system: lignées cellulaires continues; assay: in vitro toxicity on continuous cell lines (MTT method); format: cell-based; settings: all cell lines tested, comparison with AZT; tableau 8 is an image
From the text: Dans le but d'évaluer la toxicité du dérivé 5′hémisuccinyl de l'AZT, des expériences ont été réalisées sur différentes lignées cellulaires continues.
L'AZT et son dérivé 5′hémisuccinyl à différentes concentrations ont été mis en présence de cellules en phase de croissance. Le nombre de cellules vivantes a été déterminé par la méthode au MTT après 1, 2, 3 et 4 jours de culture. La cytotoxicité a été mesurée et est exprimée sous forme de CD₅₀.
Les lignées cellulaires continues utilisées sont les suivantes : - Cellules en suspension : [formula] - Cellules adhérentes : Hep-G2 : hépatocarcinome humain Hep-2 : carcinome épidermoïde humain
Les résultats sont repris au tableau 8.

[6] = AZT-5′ hémisuccinyl 6.8 mg/kg/jour i.p. 5 days
[7] = AZT-5′ hémisuccinyl 34 mg/kg/jour i.p. 5 days
[8] = AZT-5′ hémisuccinyl 170 mg/kg/jour i.p. 5 days
[9] = tableau 4, MT-4, with thymidine (250µM) + 2′déoxy-cytidine (500 µM)
[10] = tableau 4, MT-4, without thymidine / 2′déoxycytidine

Cc1cn([C@H]2C[C@H](N=[N+]=[N-])[C@@H](COC(=O)CCC(=O)O)O2)c(=O)[nH]c1=O [AZT 5′hémisuccinyl, 5′-hémisuccinyl-3′-azido-3′-déoxythymidine]
% ILS [1, 6]: 20.2%
% ITL [1, 6]: 52.4%
Temps moyen d'apparition de la tumeur [1, 6]: 7.3 jours
Temps moyen de survie [1, 6]: 11.5 jours
Temps médian d'apparition de la tumeur [1, 6]: 6.8 jours
Temps médian de survie [1, 6]: 11.0 jours
% ILS [1, 7]: >446%
% ITL [1, 7]: 145%
Temps moyen d'apparition de la tumeur [1, 7]: >25.5 jours
Temps moyen de survie [1, 7]: >41 jours
Temps médian d'apparition de la tumeur [1, 7]: 11 jours
Temps médian de survie [1, 7]: >50 jours
% ILS [1, 8]: 42.1%
% ITL [1, 8]: 257%
Temps moyen d'apparition de la tumeur [1, 8]: >23 jours
Temps moyen de survie [1, 8]: >22.7 jours
Temps médian d'apparition de la tumeur [1, 8]: 16 jours
Temps médian de survie [1, 8]: 13 jours
activité (compared with AZT, in words) ([2]; comparison with AZT): comparable à celle de l'AZT
indice de sélectivité ([2]; de l'ordre de): ~28 000
ED₅₀ ([2]; tableau 2, MT4 cells infected with 100 CCID₅₀ HIV-1, 5 days at 37°C, dose that protects 50 % of cells): .0069 µM
SI ([2]; tableau 2, indice de sélectivité = CD₅₀ sur ED₅₀, MT4 cells): 28543
SI dérivé/SI AZT ([2]; tableau 2, ratio within the same experiment, MT4 cells): 4.7
ED₅₀ [2, 9]: 6,8399 µM
SI [2, 9]: 53
ED₅₀ [2, 10]: 0,0523 µM
SI [2, 10]: 5633
toxicité plus faible que celle de l'AZT [3]: ~10 fois
ED₅₀ ([4]; durée d'administration 3 jours): 0.078 µM
ED₅₀ ([4]; durée d'administration 14 jours): 0.057 µM
toxicité sur lignées cellulaires continues (in words) [5]: moins toxique que l'AZT
